Laboratory results published in patent US10988502B2, “Alpha-D-galactoside inhibitors of galectins” (GALECTO BIOTECH AB, priority 2016, dated 2021).
Like-named read-outs stand apart in the source and are kept apart here.

Experiments:
[1] = Permeability (Papp) Caco-2 A>B; format: in vitro ADME; details: human, apical (A) to basolateral (B) direction
Experimental: (§1) The permeability (Papp) (Caco-2 A>B) was determined from the apical (A) to the basolateral (B) direction in adenocarcinoma cells from human colon. The human hepatic stability (CLint) was determined in human hepatocytes.

[2] = Human hepatic stability (CLint) in human hepatocytes; format: in vitro ADME; details: * = no degradation observed under the assay conditions
Experimental: as §1

[3] = molecular target: T1, Galectin-1 (Homo sapiens (Human), UniProt P09382); assay: Fluorescence anisotropy assay, compound as inhibitor of galectin / fluorescein tagged saccharide probe interaction; format: binding
Experimental: (§2) The affinity of Example 1-32 for galectins were determined by a fluorescence anisotropy assay where the compound was used as an inhibitor of the interaction between galectin and a fluorescein tagged saccharide probe as described Sörme, P., Kahl-Knutsson, B., Huflejt, M., Nilsson, U. J., and Leffler H. (2004) Fluorescence polarization as an analytical tool to evaluate galectin-ligand interactions. Anal. Biochem. 334: 36-47, (Sörme et al., 2004) and Monovalent interactions of Galectin-1 By Salomonsson, Emma; Larumbe, Amaia; Tejler, Johan; Tullberg, Erik; Rydberg, Hanna; Sundin, Anders; Khabut, Areej; Frejd, Torbjorn; Lobsanov, Yuri D.; Rini, James M.; et al, From Biochemistry (2010), 49(44), 9518-9532, (Salonmonsson et al., 2010).
Target sequence in this assay (P09382 whole entry): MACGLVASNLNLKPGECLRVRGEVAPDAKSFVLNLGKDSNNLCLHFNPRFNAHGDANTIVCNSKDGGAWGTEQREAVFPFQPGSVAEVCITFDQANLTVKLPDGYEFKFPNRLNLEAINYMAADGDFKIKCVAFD

[4] = molecular target: Galectin-3 (Homo sapiens (Human), UniProt P17931); assay: as above; format: binding
Experimental: as §2

[5] = molecular target: T1, Galectin-1; details: read-out: affinity to Galectin-1, cited from earlier work
Target sequence in this assay (P09382 whole entry, species assumed): as the sequence (P09382 whole entry) above

[6] = system: galectins; details: cited from earlier work

Sequence of Galectin-3 (P17931 whole entry): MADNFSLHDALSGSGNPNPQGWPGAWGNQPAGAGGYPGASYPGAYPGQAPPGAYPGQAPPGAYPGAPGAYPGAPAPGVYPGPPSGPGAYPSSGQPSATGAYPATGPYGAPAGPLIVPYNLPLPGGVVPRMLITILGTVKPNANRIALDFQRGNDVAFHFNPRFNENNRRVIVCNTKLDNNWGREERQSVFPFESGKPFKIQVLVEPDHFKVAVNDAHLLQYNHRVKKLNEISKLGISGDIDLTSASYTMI

OC[C@H]1O[C@H](Sc2ccc(Cl)c(Cl)c2)[C@H](O)[C@@H](n2cc(-c3ccsc3)nn2)[C@H]1O [Example 1, 3,4-Dichlorophenyl 3-deoxy-3-[4-(3-thiophenyl)-1H-1,2,3-triazol-1-yl]-1-thio-α-D-galactopyranoside]
Papp [1]: 101 nm/s | CLint scaled [2]: 0.726 L/h/kg | Kd [3]: 0.14 µM | Kd [4]: 2.6 µM

OC[C@H]1O[C@H](Sc2cnc(C(F)(F)F)c(Br)c2)[C@H](O)[C@@H](n2cc(-c3ccsc3)nn2)[C@H]1O [Example 4, 5-Bromo-6-trifluoromethyl-pyridin-3-yl 3-deoxy-3-[4-(3-thiophenyl)-1H-1,2,3-triazol-1-yl]-1-thio-α-D-galactopyranoside]
Papp [1]: 25 nm/s | CLint scaled [2]: 0.678 L/h/kg | Kd [3]: 0.38 µM | Kd [4]: 1.2 µM

OCC1O[C@@H](S[C@@H]2O[C@H](CO)C(O)C(n3cc(-c4ccsc4)nn3)[C@H]2O)C(O)[C@@H](n2cc(-c3ccsc3)nn2)[C@H]1O (some centres unmarked)
Kd ([5]; T. Delaine, 2016, ChemBioChem): < 0.01 µM

OC[C@H]1O[C@H](Sc2cc(Cl)c(F)c(Cl)c2)[C@H](O)[C@@H](n2cc(-c3cscn3)nn2)[C@H]1O [Example 14, 3,5-Dichloro-4-fluoro-phenyl 3-deoxy-3-[4-(4-thiazolyl)-1H-1,2,3-triazol-1-yl]-1-thio-α-D-galactopyranoside]
Papp [1]: 88 nm/s | Kd [3]: 0.23 µM | Kd [4]: 6.2 µM

O=C[C@H](O)[C@@H](O)[C@@H](O)[C@H](O)CO [Galactose, D-galactose]
affinity relative to lactose ([6]; compared with lactose): 50-100 times lower | Kd ([5]; Tejler et. al. 2009): 10000 µM

OCC1O[C@H](Sc2cc(Cl)c(F)c(Cl)c2)C(O)[C@@H](n2cc(-c3nccs3)nn2)[C@H]1O (some centres unmarked) [Example 5]
Papp [1]: 105 nm/s | CLint scaled [2]: 0.0228 L/h/kg

OC[C@H]1O[C@@H](O[C@H]2[C@H](O)[C@@H](O)C(O)O[C@@H]2CO)[C@H](O)[C@@H](O)[C@H]1O (some centres unmarked) [Lactose]
Kd ([6]; reviewed by Leffler, 2001, Leffler et al., 2004, read-out: Kd for all galectins): 100 to 1000 µM
